Activity calls are given as the source filed them. No cut-off for these calls is given here.
Assays:
[1] = Inhibition of TMZ-induced drug resistance in rat RG2 cells assessed as CD133 expression at 112.4 uM after 48 hrs by Western blot analysis (reference value: 2.4); format: functional
RG2 [2] = test: Induction of cell cycle arrest in rat RG2 cells assessed as CyclinD1 expression at 112.4 uM after 48 hrs in presence of TMZ by Western blot analysis (reference value: 1); format: functional
[3] = Synergistic cytotoxicity against rat CTX TNA2 cells assessed as synergistic effect index at 89.9 uM after 48 hrs in presence of 309 uM TMZ by MTT assay; format: cell-based; conditions: ctx tna2, 48 h
RG2 [4] = test: Induction of DNA damage in rat RG2 cells assessed as Chk2 phosphorylation at Thr68 at 112.4 uM after 48 hrs by Western blot analysis (reference value: 1); format: functional
DBTRG-05MG [5] = test: Induction of cell cycle arrest in human DBTRG-05MG cells assessed as accumulation at G2/M phase at 112.4 uM after 24 hrs by propidium iodide staining based flow cytometric analysis (reference value: 30.08 +/- 0.1%); format: functional
DBTRG-05MG [6] = test: Induction of DNA damage in human DBTRG-05MG cells assessed as H2A.X phosphorylation at ser139 residues at 112.4 uM after 48 hrs in presence of TMZ by Western blot analysis (reference value: 1); format: functional
[7] = Effect on AKT expression in human DBTRG-05MG cells at 112.4uM after 48 hrs in presence of TMZ by Western blot analysis (reference value: 1); format: functional
DBTRG-05MG [8] = test: Synergistic cytotoxicity against human DBTRG-05MG cells assessed as combination index at 134.9 uM after 48 hrs in presence of 412.1 uM TMZ by MTT assay; format: functional
DBTRG-05MG [9] = test: Induction of DNA damage in human DBTRG-05MG cells assessed as Chk1 phosphorylation at ser345 residues at 112.4 uM after 48 hrs in presence of TMZ by Western blot analysis (reference value: 1); format: functional
DBTRG-05MG [10] = test: Synergistic cytotoxicity against human DBTRG-05MG cells assessed as combination index at 112.4 uM after 48 hrs in presence of 309 uM TMZ by MTT assay; format: functional
[11] = Synergistic cytotoxicity against rat CTX TNA2 cells assessed as combination index at 112.4 uM after 48 hrs in presence of 412.1 uM TMZ by MTT assay; format: cell-based; conditions: ctx tna2, 48 h
[12] = Synergistic cytotoxicity against rat CTX TNA2 cells assessed as synergistic effect index at 134.9 uM after 48 hrs in presence of 103 uM TMZ by MTT assay; format: cell-based; conditions: ctx tna2, 48 h
DBTRG-05MG [13] = test: Induction of DNA damage in human DBTRG-05MG cells assessed as Chk2 phosphorylation at Thr68 residues at 112.4 uM after 48 hrs by Western blot analysis (reference value: 1); format: functional
DBTRG-05MG [14] = test: Synergistic cytotoxicity against human DBTRG-05MG cells assessed as combination index at 112.4 uM after 48 hrs in presence of 103 uM TMZ by MTT assay; format: functional
RG2 [15] = test: Induction of apoptosis in rat RG2 cells assessed as increase in apoptotic body formation at 112.4 uM after 48 hrs in presence of TMZ by TUNEL assay; format: functional, cell-based
DBTRG-05MG [16] = test: Induction of apoptosis in human DBTRG-05MG cells assessed as phosphorylated caspace-3 expression at 112.4 uM after 48 hrs by Western blot analysis (reference value: 1); format: functional
[17] = Synergistic cytotoxicity against rat CTX TNA2 cells assessed as synergistic effect index at 112.4 uM after 48 hrs in presence of 515.1 uM TMZ by MTT assay; format: cell-based; conditions: ctx tna2, 48 h
RG2 [18] = test: Synergistic cytotoxicity against rat RG2 cells assessed as synergistic effect index at 89.9 uM after 48 hrs in presence of 412.1 uM TMZ by MTT assay; format: functional
RG2 [19] = test: Induction of cell cycle arrest in rat RG2 cells assessed as accumulation at S phase at 112.4 uM after 48 hrs by propidium iodide staining based flow cytometric analysis (reference value: 20.15 +/- 2.44%); format: functional
DBTRG-05MG [20] = test: Synergistic cytotoxicity against human DBTRG-05MG cells assessed as combination index at 112.4 uM after 48 hrs in presence of 412.1 uM TMZ by MTT assay; format: functional
DBTRG-05MG [21] = test: Synergistic cytotoxicity against human DBTRG-05MG cells assessed as synergistic effect index at 134.9 uM after 48 hrs in presence of 309 uM TMZ by MTT assay; format: functional
RG2 [22] = test: Synergistic cytotoxicity against rat RG2 cells assessed as combination index at 134.9 uM after 48 hrs in presence of 309 uM TMZ by MTT assay; format: functional
RG2 [23] = test: Induction of apoptosis in rat RG2 cells assessed as phosphorylated caspace-9 expression at 112.4 uM after 48 hrs in presence of TMZ by Western blot analysis (reference value: 1); format: functional
DBTRG-05MG [24] = test: Induction of cell cycle arrest in human DBTRG-05MG cells assessed as accumulation at S phase at 112.4 uM after 48 hrs in presence of TMZ by propidium iodide staining based flow cytometric analysis (reference value: 22.76 +/- 1.56%); format: functional
DBTRG-05MG [25] = test: Induction of apoptosis in human DBTRG-05MG cells assessed as Bcl2 expression at 206 uM after 48 hrs by Western blot analysis (reference value: 1); format: functional
DBTRG-05MG [26] = test: Induction of cell cycle arrest in human DBTRG-05MG cells assessed as p53 expression at 206 uM after 48 hrs by Western blot analysis (reference value: 1); format: functional
DBTRG-05MG [27] = test: Induction of apoptosis in human DBTRG-05MG cells assessed as phosphorylated PARP expression at 206 uM after 48 hrs by Western blot analysis (reference value: 1); format: functional
RG2 [28] = test: Induction of cell cycle arrest in rat RG2 cells assessed as accumulation at G2/M phase at 206 uM after 12 hrs by propidium iodide staining based flow cytometric analysis (reference value: 20.04 +/- 0.55%); format: functional
DBTRG-05MG [29] = test: Induction of apoptosis in human DBTRG-05MG cells assessed as increase in chromatin condensation at 206 uM after 48 hrs by TUNEL assay; format: functional, cell-based
DBTRG-05MG [30] = test: Antitumour activity against human DBTRG-05MG cells xenografted in BALB/c nude mouse assessed as reduction in tumour growth at 5 mg/kg, ip for 5 days and measured every 2 days; format: functional, organism-based; conditions: time 5.0 day
DBTRG-05MG [31] = test: Induction of cell cycle arrest in human DBTRG-05MG cells assessed as accumulation at G0/G1 phase at 206 uM after 12 hrs by propidium iodide staining based flow cytometric analysis (reference value: 47.16 +/- 1.55%); format: functional
RG2 [32] = test: Induction of cell cycle arrest in rat RG2 cells assessed as accumulation at S phase at 206 uM after 24 hrs by propidium iodide staining based flow cytometric analysis (reference value: 20.15 +/- 2.44%); format: functional
DBTRG-05MG [33] = test: Induction of apoptosis in human DBTRG-05MG cells assessed as Bax expression at 206 uM after 48 hrs by Western blot analysis (reference value: 1); format: functional

C[C@@H]1CC[C@H]2C(C)(C)[C@H]3C[C@@]12CC[C@@]3(C)O [CEDROL]
fold change (FC) [1]: 1.3
fold change (FC) (RG2 [2]): 0.8
Activity_index [3]: 0.49
fold change (FC) (RG2 [4]): 1
Activity (DBTRG-05MG [5]): 26.38%
fold change (FC) (DBTRG-05MG [6]): 1.2
fold change (FC) [7]: 0.6
CI (DBTRG-05MG [8]): 0.6
fold change (FC) (DBTRG-05MG [9]): 1.4
CI (DBTRG-05MG [10]): 0.57
CI [11]: 1.1
Activity_index [12]: 0.28
fold change (FC) (DBTRG-05MG [13]): 1.9
CI (DBTRG-05MG [14]): 0.56
Activity (RG2 [15]): Active
fold change (FC) (DBTRG-05MG [16]): 1.1
Activity_index [17]: 0.7
Activity_index (RG2 [18]): 0.66
Activity (RG2 [19]): 16.62%
CI (DBTRG-05MG [20]): 0.62
Activity_index (DBTRG-05MG [21]): 0.89
CI (RG2 [22]): 0.92
fold change (FC) (RG2 [23]): 0.4
Activity (DBTRG-05MG [24]): 20.58%

Cn1nnc2c(C(N)=O)ncn2c1=O [TEMOZOLOMIDE]
fold change (FC) (DBTRG-05MG [25]): 1.3
fold change (FC) (DBTRG-05MG [26]): 2
fold change (FC) (DBTRG-05MG [27]): 0.4
Activity (RG2 [28]): 28.32%
Activity (DBTRG-05MG [29]): Active
Activity (DBTRG-05MG [30]): Active
Activity (DBTRG-05MG [31]): 42.28%
Activity (RG2 [32]): 15.48%
fold change (FC) (DBTRG-05MG [33]): 1.4

— ChEMBL document CHEMBL4699511, “Cedrol, a Sesquiterpene Alcohol, Enhances the Anticancer Efficacy of Temozolomide in Attenuating Drug Resistance via Regulation of the DNA Damage Response and MGMT Expression” (J Nat Prod, 2020)
